Test results reported in patent US20060246178A1, “Fermented milk product comprising tripeptide vpp and/or ipp” (priority 2003, published 2006).
pIC50: −log10 of the molar value.

Columns and labels:
ACE = ACE (Homo sapiens, UniProt P12821); assay: ACE inhibition activity assay with fluorogenic substrate Abz-FRK(Dnp)P-OH; type: biochemical; details: standard, 5 μM end-concentration
Procedure: When ACE cleaves the R—K bond of the fluorogenic substrate, the distance of the quencher (Dnp) with regard to the fluorescent group (Abz) will be enlarged resulting in a fluorescent signal.
This signal is direct related to the ACE activity and is measured with a fluorometer.
Samples were prepared as follows:
The fermented milk was transferred to a centrifuge tube. The pH was adjusted to 4.0±0.1 by adding a few μl of 6 M HCl and centrifuged for 5-10 minutes at 4.000×g at room temperature (RT). The supernatant was transferred to a tube and the pH was adjusted to 7.0±0.1 by adding a few μl of 6 M NaOH. The pH-adjusted sample was transferred to an Eppendorf tube and centrifuged for ten minutes at 14.000 rpm at RT. The supernatant was transferred to a tube and ready for the ACE inhibition activity assay. If sample was not processed immediately, it was stored at −20° C.
The slope/second is a measure for the activity of ACE.
As a standard, Captopril (1 nM end-concentration) or IPP (5 μM end-concentration) was used.

[1] = target: Angiotensin I Converting Enzyme (ACE) (Homo sapiens, UniProt P12821); details: literature (Kohmura 1990; Nakamura 1995); read-out: IC50, the concentration which results in 50% inhibition of the ACE activity; cited from earlier work
Angiotensin I Converting Enzyme (ACE), sequence (P12821 30-1306, species assumed): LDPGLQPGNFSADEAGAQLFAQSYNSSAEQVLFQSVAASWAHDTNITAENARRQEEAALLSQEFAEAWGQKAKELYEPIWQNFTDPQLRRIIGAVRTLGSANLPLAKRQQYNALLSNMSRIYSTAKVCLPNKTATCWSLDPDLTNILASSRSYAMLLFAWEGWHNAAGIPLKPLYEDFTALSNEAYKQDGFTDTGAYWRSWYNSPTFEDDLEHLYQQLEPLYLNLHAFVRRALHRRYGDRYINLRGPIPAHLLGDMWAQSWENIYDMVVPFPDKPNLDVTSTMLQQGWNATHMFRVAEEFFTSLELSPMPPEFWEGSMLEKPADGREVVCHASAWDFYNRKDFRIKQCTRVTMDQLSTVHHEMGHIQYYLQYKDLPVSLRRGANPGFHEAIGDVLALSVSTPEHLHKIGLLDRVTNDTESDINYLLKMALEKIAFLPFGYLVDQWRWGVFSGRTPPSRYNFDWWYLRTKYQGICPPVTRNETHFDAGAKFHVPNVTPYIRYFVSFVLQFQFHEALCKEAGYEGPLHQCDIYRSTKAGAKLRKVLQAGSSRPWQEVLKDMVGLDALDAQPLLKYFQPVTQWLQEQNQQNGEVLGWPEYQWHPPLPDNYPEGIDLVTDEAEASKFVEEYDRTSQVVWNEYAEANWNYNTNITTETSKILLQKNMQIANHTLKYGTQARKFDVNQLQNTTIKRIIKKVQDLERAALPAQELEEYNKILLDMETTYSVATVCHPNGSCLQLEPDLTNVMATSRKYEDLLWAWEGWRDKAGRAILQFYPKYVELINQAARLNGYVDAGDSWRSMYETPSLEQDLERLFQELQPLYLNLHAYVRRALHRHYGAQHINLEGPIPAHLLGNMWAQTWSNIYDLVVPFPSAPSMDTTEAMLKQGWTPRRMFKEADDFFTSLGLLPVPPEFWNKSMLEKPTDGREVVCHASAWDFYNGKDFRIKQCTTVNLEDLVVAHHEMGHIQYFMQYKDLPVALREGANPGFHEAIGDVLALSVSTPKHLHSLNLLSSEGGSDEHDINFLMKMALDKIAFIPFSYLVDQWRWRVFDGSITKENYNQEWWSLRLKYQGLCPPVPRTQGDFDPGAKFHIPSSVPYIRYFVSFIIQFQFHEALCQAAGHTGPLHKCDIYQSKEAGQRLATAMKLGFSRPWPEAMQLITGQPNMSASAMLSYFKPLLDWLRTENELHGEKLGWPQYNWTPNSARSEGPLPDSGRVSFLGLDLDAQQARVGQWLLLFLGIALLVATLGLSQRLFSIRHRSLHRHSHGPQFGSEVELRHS

ACE, sequence (P12821 30-1306, species assumed): as above

inhibition of the ACE activity (ACE)	Substance	pIC50 [1]
about 30%	Ile-Pro-Pro [IPP]	5.30
	Val-Pro-Pro [VPP]	5.05
